In assay [1] the test system is C57BL6/KsJ db/db mice. Nature of the assay: wound healing in db/db diabetic mice. Type of assay: in vivo. From the text:
The mice were obtained from The Jackson Laboratories and were aged 3–7 months before the onset of the wounding protocol. All mice were anesthetized prior to wounding. Wounds were created in C57BL6/KsJ db/db mice with a 4 mm biopsy punch. Two wounds were introduced onto the upper back of each animal by pulling the skin away from underlying structures and pushing the punch through the isolated skin. Typically, wounds were created to an average depth of 1.7 mm, with a range of 1.3 to 2.2 mm. No muscle involvement occurred during the course of wounding.
Each day the wounds were digitally photographed and wound areas were determined by computer integration of the photographs. All wound treatments and the subsequent data analyses were performed in a blind manner (see e.g., Brown et al., 1994). Wound area at the time of wounding (day 0) is arbitrarily set to a relative value of 1 for all wounds; such that subsequent wound areas are converted to relative wound areas by dividing the wound area at day n by the wound area at day zero.

The target of assay [2] is T1, MMP-9 (Homo sapiens, UniProt P14780).
T1 construct: Active MMP-9 enzyme was purchased from Calbiochem; purchased Calbiochem
Description: enzymatic hydrolysis of fluoresceinated collagen by MMP-9. Type of assay: biochemical. The following applies: extended time assay, FIG. 8. As to the method:
Two enzymatic assays were performed. The first assay measured the enzymatic hydrolysis of fluoresceinated collagen by MMP-9 as a function of time. […] The protein mixture was added to the collagen substrate, and was quickly mixed. Fluorescence emission intensity at 520 nm was measured as a function of time (excitation wavelength 495 nm) in a Shimadzu RF5301 fluorometer (Lakowicz, 1983). The fluorescein release assay was used to determine the inhibitory constant (Ki) of the peptide inhibitor ([I]) according to Segel (1993) via the use of Dixon plots (1/v vs. [I]), such that: slope=Km/(Vmax Ki [S]) (1) where Km is the Michaelis constant, Vmax is the reaction maximum velocity, and [S] is the substrate concentration.

Assay [3] deals with normal human epidermal keratinocytes. Nature of the assay: keratinocyte proliferation, Cell Titer 96, OD 490 nm. Type of assay: cell-based. The note with it: 48 hours. As to the method:
The proliferative response of these human skin keratinocytes to the 19mer peptide was measured in a 96-well assay system using keratinocyte basal medium (KBM, Clonetics, catalog number CC-3103) as a control. […] The plates were incubated for 24 hours at 37° C. in a humidified 5% CO2 atmosphere. […] In addition, 100 μl of vehicle KBM was added to 10 wells as control. The plate was incubated for 48 hours at 37° C. in a humidified, 5% CO2 atmosphere. After incubation, 20 μl of Cell Titer 96 Aqueous One Solution was added to all wells. The plate was swirled gently and placed back in the incubator for 3 hours. The spectrophotometric absorbance of each well was read at 490 nm. Results were analyzed statistically using one-way ANOVA.

Assay [4] addresses T1, MMP-9. Description: isothermal titration calorimetry with MMP-9. Type of assay: binding. The note with it: ITC, 20 mM NaCl. As to the method: Isothermal titration calorimetry (ITC) was performed with a VP-ITC instrument from MicroCal, Inc. Titrations were carried out by injecting 5 μL of an inhibitor peptide solution (at concentration ranges from 0.5 mM to 2.0 mM) into the 1.4 mL stirred reaction cell. MMP-9 ranged in concentration from 50 to 80 μM in the cell. Both the inhibitor and the enzyme were in 20 mM sodium cacodylate (pH 5.5–7.0), 40 mM NaCl, or 20 mM Tris-HCl (pH 7.0–7.5), 40 mM NaCl. Titrations were conducted between 20° C. and 40° C. Typical experimental conditions for the titrations were a 10 second injection period followed by a 240 second delay between injections for a total of 40 injections. Blank titrations of inhibitor peptide into buffer were performed in order to correct for heats of dilution and mixing.
The independent set of multiple binding sites is the most common model for binding experiment evaluations. The analytical solution for the total heat is determined by (Freire et al., 1990):
[formula] where Q is the total heat, V is the cell volume, ΔH is the enthalpy, M is the macromolecule concentration (the binding partner in the cell), n is the binding stoichiometry, L is the ligand concentration (the binding partner in the syringe), and K is the association constant. Data were fit to this model using Origin version 5 (MicroCal, Inc.). Surface Plasmon Resonance
The peptide was dissolved in 20 mM cacodylate (pH 6.8), 20 mM NaCl at a final concentration of 1 mM. MMP-9 was dialyzed into the same buffer at a final concentration of 20 μM. A series of standard injections were performed as described above.
On the technique in general: In ITC the heat of successive injections is recorded.

Assay [5] concerns the target pro-MMP-9 (Homo sapiens, UniProt P14780). Description: anti-activation (splicing) assay: conversion of pro-MMP-9 by stromilysin, HPLC. Format: biochemical. The following applies: pro-MMP-9 with stromilysin, micromolar 19-mer. As to the method: The assay measured how much proenzyme was converted into mature matrix metalloproteinase. Proenzyme pro-MMP-9 (100 μg) was mixed with 0.5 μg of stromilysin in PBS. The reaction was incubated at 35° C. Aliquots were removed from the reaction over an 80-minute time course. […] The zero (injection) time point was a single peak that eluted from the column in approximately 750 seconds. This peak reduced in size as a function of time, and two new peaks appeared. The first peak eluted at approximately 800 seconds, and represents the mature form of MMP-9. The second peak eluted at approximately 1100 seconds, and corresponds to the N-terminal pro-domain fragment. Peak areas were determined by integrating over the elution profile, and the percent area changes were plotted.
The first peak, eluting at approximately 700 seconds, is pro-MMP-9. As the splicing reaction proceeds, this peak decreases in intensity (as marked with the downwards arrow), and two new peaks appear. The first new peak, eluting at approximately 800 seconds, is mature and active MMP-9. The second new peak, eluting at approximately 1050 seconds, is the prodomain. As the splicing reaction proceeds, the intensity of these two peaks increases (as marked with the upwards arrows). When the reaction is complete, there is no detectable pro-MMP-9 remaining.

Where [6] appears, read: single dose 5 μL of 20 μg/mL at day zero.
The mark [7] stands for this setting: MMP-9, 20 mM cacodylate (pH 6.8).

Entries after “also recorded” stand apart in the source; their conditions may differ. Some results are limits rather than exact numbers.

T1 sequence (P14780 107-707 limits assumed): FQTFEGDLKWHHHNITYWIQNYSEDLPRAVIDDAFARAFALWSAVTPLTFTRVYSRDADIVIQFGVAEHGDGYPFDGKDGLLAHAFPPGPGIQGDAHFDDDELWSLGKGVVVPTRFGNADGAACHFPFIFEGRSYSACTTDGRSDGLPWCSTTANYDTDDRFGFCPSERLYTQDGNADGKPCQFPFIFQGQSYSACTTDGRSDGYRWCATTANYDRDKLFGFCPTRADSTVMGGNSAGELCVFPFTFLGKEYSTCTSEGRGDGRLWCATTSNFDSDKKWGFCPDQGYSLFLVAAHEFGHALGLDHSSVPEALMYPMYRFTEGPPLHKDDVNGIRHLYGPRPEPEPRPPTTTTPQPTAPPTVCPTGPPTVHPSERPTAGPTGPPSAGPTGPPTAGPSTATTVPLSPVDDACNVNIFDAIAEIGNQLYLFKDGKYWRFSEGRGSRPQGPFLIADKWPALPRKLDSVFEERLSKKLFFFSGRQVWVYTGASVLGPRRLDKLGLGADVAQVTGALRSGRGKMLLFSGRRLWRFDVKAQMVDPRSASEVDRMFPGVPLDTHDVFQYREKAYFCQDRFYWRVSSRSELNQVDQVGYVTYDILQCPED
Sequence of pro-MMP-9 (P14780 20-707): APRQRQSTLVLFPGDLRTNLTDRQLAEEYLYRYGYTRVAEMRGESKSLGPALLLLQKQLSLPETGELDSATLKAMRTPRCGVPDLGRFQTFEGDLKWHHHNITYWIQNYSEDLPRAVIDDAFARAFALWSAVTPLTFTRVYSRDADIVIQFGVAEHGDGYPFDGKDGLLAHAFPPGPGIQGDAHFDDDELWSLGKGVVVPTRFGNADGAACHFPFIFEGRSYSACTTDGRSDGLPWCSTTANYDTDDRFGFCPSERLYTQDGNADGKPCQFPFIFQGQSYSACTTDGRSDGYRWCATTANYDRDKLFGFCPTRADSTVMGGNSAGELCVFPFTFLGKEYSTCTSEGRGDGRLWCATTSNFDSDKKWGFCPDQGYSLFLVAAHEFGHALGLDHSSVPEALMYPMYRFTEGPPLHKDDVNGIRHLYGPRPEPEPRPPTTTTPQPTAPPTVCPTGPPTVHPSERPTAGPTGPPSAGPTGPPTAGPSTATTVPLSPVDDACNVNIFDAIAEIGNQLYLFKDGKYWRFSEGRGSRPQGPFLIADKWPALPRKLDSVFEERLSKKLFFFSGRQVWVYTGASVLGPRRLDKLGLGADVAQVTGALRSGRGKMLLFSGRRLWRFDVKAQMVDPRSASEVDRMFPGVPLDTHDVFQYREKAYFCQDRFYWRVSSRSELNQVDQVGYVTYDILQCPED

Regarding `CC(C)[C@H](NC(=O)[C@H](CC(=O)O)NC(=O)[C@@H]1CCCN1C(=O)[C@H](CC(N)=O)NC(=O)CNC(=O)[C@H](CS)NC(=O)[C@H](CCCNC(=N)N)NC(=O)[C@@H]1CCCN1)C(=O)N[C@@H](C)C(=O)N[C@@H](CC(N)=O)C(=O)N[C@@H](Cc1ccc(O)cc1)C(=O)N[C@@H](CC(N)=O)C(=O)N[C@@H](Cc1ccccc1)C(=O)N[C@@H](Cc1ccccc1)C(=O)N1CCC[C@H]1C(=O)N[C@@H](CCCNC(=N)N)C(=O)N[C@@H](CCCCN)C(=O)N1CCC[C@H]1C(=O)N[C@@H](CCCCN)C(=O)O` [Peptide 19-mer], in assay [1] (day one post wounding), the wound inflammation entry is reported as “reduction in wound inflammation”. In assay [1] (setting [6]), the “day on which wound contraction process began” value is 5 days and the “time to wound closure post wounding” value amounted to 9 days. Also, in assay [2], the “time over which MMP-9 catalyzed hydrolysis of collagen is effectively inhibited” value is more than 1000 min. Moreover, in assay [3] (1×10^−4 M, P<0.001), the “keratinocyte cell growth versus control” value is reported as “even greater cell growth”. In addition, the “keratinocyte cell density versus control” value in assay [3] (1×10^−5 M, P<0.01) was “significantly greater cell density”. Further, in assay [3] (1×10^−6 M, P>0.05), the “keratinocyte cell proliferation versus control” value is “only a small amount of cell proliferation”. This molecule displayed a Stoichiometry in assay [4] (MMP-9 20 μM, peptide 1 mM, 20 mM cacodylate (pH 6.8)) of 0.975 ± 0.02. In assay [4] (setting [7]), this molecule registered a ΔH of -26.1 ± 1.45 kcal/mol and a ΔS of −11.6 ± 2.2 cal mol^−1 K^−1. Further, the “inhibition of conversion of pro-MMP-9 into prodomain and active enzyme (splicing)” value in assay [5] is “prevents the activation; also recorded: inhibited in a dose dependent manner”.
